Earlier results on five compounds are cited in patent publication US6907319B2, “System for the application of pesticides” (Syngenta Crop Protection, Inc., priority 2000, dated 2005).

For series [1] the following is noted: increasing the soil temperature.
In series [2] the test system is potato. The following applies: cool temperatures (13° C. day/4° C. night) compared with 24° C./13° C.

As for `Nc1c(Cl)c(Cl)nc(C(=O)O)c1Cl` [picloram], the “reduction of the maximum phytotoxicity threshold” value (“reduction” for short) in series [1] is 1.5 fold.

Regarding `COC(=O)c1sccc1S(=O)(=O)NC(=O)Nc1nc(C)nc(OC)n1` [thiameturon-methyl], the “activity with increasing rain” value (increasing of rain) is on record as “reduces the activity”. Besides, the “performance with increasing temperature and humidity” value (increasing temperature and humidity) is listed as “markedly improved”.

For `Cc1[nH]c(=O)n(C(C)(C)C)c(=O)c1Cl` [terbacil], the “reduction” value in series [1] is listed as 2.5 fold.

Regarding `O=C(O)CNCP(=O)(O)O` [glyphosate], the “phytotoxicity of glyphosate/ha, less than at 24° C./13° C.” value in series [2] was 50%.

Take `CCNc1nc(Cl)nc(NC(C)C)n1` [atrazine]: the “reduction” value in series [1] is given as 3 fold.
